Source: US12667584B2, “Adenosine analog and its use in regulating the circadian clock” (NATIONAL INSTITUTE OF BIOLOGICAL SCIENCES, BEIJING, priority 2017, dated 2026)

Key:
[1] = Sleep phenotype by locomoter activity and electrophysiological recording; conditions: in vivo
Description: This is considered as a positive side-effect to adapt to jet-lag, which causes more problems on the sleep than arousal side. […] This work provide immediate and important practical applications, including use the disclosed compounds to assist humans who suffer jet-lag or shift-work can use this drug to adjust the clock-phase, and simultaneously tune the sleep-wake pattern, particularly coupled with caffeine ingestion.

Per2::Luc = experiment: In-vivo imaging of luciferase signal in Per2::Luc knockin mice; parameters: species or system mouse
Description: Drug injection and in-vivo imaging analysis: mPer2Luciferase knockin mice were housed in Germ Free Animal Facility, under 12 h light/dark photoperiod, with food and water ad libitum. 8 week-old male mPer2Luciferase knockin mice were intraperitoneal injection with 15 mg/kg bw CA03 or DMSO. CA03 was firstly dissolved in DMSO to the concentration of 200 μg/μl, then dilute with saline to the final concentration of 1000 μg/ml for intraperitoneal injection. 1 h later, d-luciferin (Gold Bio.) was intraperitoneally injected. Relative luciferase activity were imaged on IVIS Lumina III system and analysed with in-vivo imaging software (PerkinElmer). […]
Next, the inventors sought to determine whether the clock effects of cordycepin can be recaptured in vivo. […] This observation is especially true when nascent RNA levels were measured, highlighting the first-order, inductive response in E-box genes as previously proposed(FIG. 2B).
To test whether cordycepin function in vivo, we firstly tested luciferase signal level by live imaging of Per2:LUC mice after intraperitoneal injection of 15 mg/kg cordycepin or DMSO. […] Prior evaluation the jet-leg cure ability of cordycepin, we detected whether cordycepin and it's prodrug pro-CA03 can penetrate BBB. We injected cordycepin or pro-CA03 via tail vein and time course sampled CSF and analyzed cordycepin pro-CA03 level with HPLC-MASS method. […]

[2] = HPLC-MASS analysis of CSF after tail vein injection; assay type: in vivo, rat; conditions: 15 mg/kg tail vein
Description: HPLC-MASS analysis CSF: 8 W SD rats are bought from Beijing Vital River, housed in individually cage in a temperature- and humidity-controlled SPF facility, with ad libitum access to food and water. The animals were entrained under 12 h light/dark photoperiod for two weeks to synchronize the endogenous circadian clock of the mice to the ambient light-dark cycle, light intensity is about 50˜100 lux. […] Finally, each 450 μl supernatant was collected into a new 1.5 ml tube, dried with SpeedVac and analyzed with HPLC-MASS facility.
To test whether cordycepin function in vivo, we firstly tested luciferase signal level by live imaging of Per2:LUC mice after intraperitoneal injection of 15 mg/kg cordycepin or DMSO. […] Prior evaluation the jet-leg cure ability of cordycepin, we detected whether cordycepin and it's prodrug pro-CA03 can penetrate BBB. We injected cordycepin or pro-CA03 via tail vein and time course sampled CSF and analyzed cordycepin pro-CA03 level with HPLC-MASS method. […] Finally we evaluated the jet-leg cure ability of cordycepin, pro-CA03 and Pro-CA04 with mice behavioral experiment. […]

PER2 locus = experiment: ChIP-qPCR analysis for the PER2 locus; assay type: cell-based
Description: Human and mouse circadian oscillators are driven by interlocked transcriptional and translational feedback loop. Bmal1 and Clock are transcriptional factors and function as positive arm to active negative arm genes transcription, including Per and Cry. Per and Cry are transcriptional repressor and feedback repress Bmal1/Clock's transcription activity thereby inhibit its own transcription. […] We also confirmed this by ChIP-qPCR experiments. Cordycepin treatment 30 min immediately release Cry1/2 and Ruvbl2 binding at Per2 gene promoter.

For Nc1ncnc2c1ncn2[C@@H]1O[C@H](CO)C[C@H]1O [Cordycepin, 3′-deoxy-adenosine], the sleep phenotype [1] was “leads to a sleep phenotype”, the “increase of luciferase signal in liver compared with DMSO control” value (Per2::Luc; 15 mg/kg intraperitoneal) was “more than 4 folds” and the “time to induction of luciferase signal after drug administration” value (Per2::Luc; i.p. at ZT4) was no more than 1 h. For the same compound, the “time of peak concentration in CSF after injection” value [2] was 1 min, the “binding of BMAL1 at PER2 locus” value (PER2 locus) was “remained unchanged” and the “binding of CRY2/RUVBL2 at PER2 locus” value (PER2 locus) was “released”.
